Measured values reported in a melting point compilation (Tetko et al.; mined from patent text by program, amines drawn as free bases though some values may be those of a salt).

| Structure (SMILES) | melting point [°C] |
| --- | --- |
| OC(COc1cccc2[nH]nnc12)CN1CCC(COc2ccccc2)CC1 (configuration not stated) | 187 to 189 |
| CCNc1ccc(C#N)cc1[N+](=O)[O-] | 130 to 132 |
| COCC#Cc1cc(F)c2ncc(C(=O)NCc3ccc(Cl)cc3)c(O)c2c1 | 222 to 224 |
| COc1cc(C)c(C)cc1NC(=O)N1CCN(c2cccc(O)c2)CC1 | 177 to 178 |
| CCOc1cncc(I)n1 | 36 to 37 |
| CCn1c(=O)c2[nH]c(/C=C/c3cccc(OC)c3[N+](=O)[O-])nc2n(CC)c1=O | > 285 |
| CN(Cc1ccc2c(Br)c(OCC#N)ccc2c1)C(=O)c1cn(C)c2ccccc12 | 148 to 150 |
| CCS(=O)(=O)N[C@H](C(=O)NCCc1ccc(OCc2ccc(Cl)s2)c(OC)c1)C(C)C | 124 to 127 |
| O=C(CNc1ccccc1)OC1CCCCC1 | 50 |
| CN1CCn2c1c(-c1ccccc1)c1ncccc1c2=O | 237 to 240 |
| COc1ccc(COc2nn(Cc3ccccc3)cc2C=O)cc1OCc1nc(-c2ccco2)oc1C | 142 to 143 |
| N#Cc1cccc(CCC(=O)c2c(O)c3cccnc3n(-c3ccccc3)c2=O)c1 | 219 to 220 |
| CCC(C)(C)c1ccc(OCCCNC(=O)c2cc(NC(=O)C(Cl)(Cl)Cl)c3ccccc3c2O)c(C(C)(C)CC)c1 | 190 to 192 |
| CCN(CC)CCOc1ccc(Nc2ncc3cc(-c4c(Cl)cccc4Cl)c(=O)n(C)c3n2)cc1 | 141 to 143 |
| Fc1c(F)c(C(F)(F)F)c(F)c(F)c1Nc1nc(Cl)nc(Cl)c1Cl | 152 to 153 |
| COc1ccc(C(=O)c2c(-c3ccc(OC)cc3)oc3cc(OC)ccc23)cc1 | 106 to 109 |
| C=CCC(O)(CCCc1ccc(Cl)cc1)c1ccc(OCc2ccc3ccccc3n2)cc1 (configuration not stated) | 87 to 88 |
| C=CC[C@H](C(N)=O)[C@@H](CC(C)C)C(=O)NC1N=C(N(C)c2ccccc2)c2ccccc2N(C)C1=O (some centres not stated) | 267 to 268 |
| CC(C#N)=Cc1ccc(C=O)cc1 | 63 to 64 |
| CCC1OC1CC(=O)OC(C#N)c1ccc2ccccc2c1 (configuration not stated) | 60 to 61 |
| CCOC(=O)c1cn(C2CC2)c2nc(Sc3ccc(C)cc3)c(F)cc2c1=O | 186 to 187 |
| CN1CCCCC1CCc1ccccc1NC(=O)c1ccc(Br)cc1 (configuration not stated) | 138 |
| O=[N+]([O-])c1ccc2[nH]cc(C3=CCN(CC4CC4)CC3)c2c1 | 187 to 188 |
| Cc1ccc(-c2nccc(-c3ccccc3)n2)cc1[N+](=O)[O-] | 139 |

| Structure (SMILES) | melting point [°C] |
| --- | --- |
| CC(=O)SCC(Cc1ccc(C)cc1)C(=O)Nc1cccc(C(=O)O)c1C (configuration not stated) | 206 to 208 |
| C#CCN1C(=O)COc2cc(F)c(-c3ncnc(C(F)(F)F)c3Cl)cc21 | 158 to 159 |
| O=C(O)C(=O)CC(=O)c1cccn1Cc1ccc(Cl)cc1 | 182 to 184 |
| CC1CC(CN2CCNC2=N[N+](=O)[O-])CO1 (configuration not stated) | 109 to 110 |
| Cc1nc2c(OCc3ccccc3)cccn2c1CC#N | 163 to 166 |
| O=C(c1cccs1)c1cnn2c(-c3cccc(-c4nnn(CCO)n4)c3)ccnc12 | 134 |
| CCOC(=O)c1ccc(N2C(=O)CCC2CO)c([N+](=O)[O-])c1 (configuration not stated) | 90 to 95 |
| N#CC1(Cl)C=C(OCc2ccccc2)C=NC1 (configuration not stated) | 114 to 115 |
| N=C(N)Nc1nc(CCCCNc2c(NCCSCc3csc(NC(=N)N)n3)c(=O)c2=O)cs1 | 208 to 210 |
| CCOC(=O)c1c(C)nc(C(C)C)c2nnn(CC)c12 | 55 to 57 |
| Cc1ccc(S(=O)(=O)n2ccc3cccnc32)cc1 | 136 to 138 |
| COc1cccc2c1CN(c1nc3c(cc1F)c(=O)c(C(=O)O)cn3C1CC1)C2 | > 300 |
| Cc1cc2c(=O)n(CCN3CCC(Nc4nc5ccccc5n4Cc4ccc(F)cc4)CC3)c(=S)[nH]c2s1 | 236 |
| C=CC12CCC3(C)C(F)C(O)CC3C1CCc1cc(O)ccc12 (configuration not stated) | 94 to 98 |
| CC1Nc2cc(F)c(F)cc2-n2cccc21 (configuration not stated) | 93 to 95 |
| CCSc1ccc(C2=NC[C@@H](OC(=O)Nc3ccccc3)[C@H](c3ccccc3)O2)cc1 (racemic) | 70 |
| CCCC(CCC)Nc1cc(C)nc(Cl)c1N | 139 to 140 |
| N#Cc1ccc2c(c1)C(=O)N(C1CCC(=O)NC1=O)C2=O (configuration not stated) | > 260 |
| CC(C)OCC1(C(F)(F)F)c2cc(Cl)ccc2Nc2ncc(Cl)cc21 (configuration not stated) | 137 to 138 |
| OCc1cccc(-c2csc(-c3cn([C@H]4CN5CCC4CC5)nn3)c2)c1 | 211 |
| CCCCOc1cc2cc(C(=O)OC)c(C(=O)OC)c(-c3ccnc(Cl)c3)c2cc1OC | 143 to 147 |
| CC1=NN=C(c2cccc(N)c2)c2cc3c(cc2C1)OCO3 | 190 to 191 |
| COc1ccc(C=C2c3ccccc3C(=NO)c3ccccc32)cc1O | 140 |
| COc1ccc2cc(C3=CC4CCC(C3)N4)ccc2c1 (configuration not stated) | 138 |

Next, values leading:

| melting point [°C] | Structure (SMILES) |
| --- | --- |
| 134 to 135 | CCOCN1C(C)=C(C(=O)O)C(c2cccc([N+](=O)[O-])c2)C(C(=O)OC)=C1C (single isomer, unassigned; (-)) |
| 211 | COc1ccccc1NC(=O)CN1C(=O)c2ccccc2C1=O |
| 140 to 143 | COc1ccc(CNc2nc(C#N)ncc2C(=O)c2cc(OC)c(OC)c(OC)c2)cc1Cl |
| 133 to 134 | CN(C)CC(O)C1=CC2(CCCC2)c2ccccc21 (configuration not stated) |
| 125 to 127 | COc1ccc(C=C(C#N)c2ccncc2)cc1OC1CCCC1 |
| 111 to 113 | O=C1CC2(c3ccccc3)CCCC=C2C(=O)N1CC1CCCCC1 (configuration not stated) |
| 91 to 92 | Cc1c(-c2ccccc2)oc2c(OCCCCBr)cccc2c1=O |
| 143 to 145 | O=CNNc1cccc(NC(=S)Nc2ccccc2)c1 |
| 95 to 96 | Oc1ccc(Cc2ccc(OCc3ccccc3)cc2)cc1 |
| 198 to 199 | CNC(=O)c1cc(C)nc(NC(=O)c2cc(Cl)nn2-c2ncccc2Cl)n1 |
| 189 to 191 | CN(c1cccc2cc(C3=NCC(CCN4C(=O)CCC4=O)S3)[nH]c12)S(=O)(=O)c1cccs1 (configuration not stated) |
| 70 to 71 | CCNC(=O)NCCC1CCCc2ccc(OC)cc21 (configuration not stated) |
| 295 to 300 | CCOC(=O)c1cnc2cc(NC(C)=O)ccc2c1O |
| 142 to 144 | COC(=O)C1=C(C)NC(C)=C(C(=O)OC(C)C)C1c1cccc([N+](=O)[O-])c1 (configuration not stated) |
| 164 to 166 | CC(C)(C)OC(=O)CN(CC(=O)OC(C)(C)C)S(=O)(=O)c1ccc(N2CCC(NC[C@H](O)c3ccc(O)c(NS(C)(=O)=O)c3)CC2)cc1 |
| 196 to 197 | COC1(C(C)=O)CCC2C3CCC4=CC(=O)CCC4(C)C3CCC21C (configuration not stated) |
| 127 to 130 | COc1ccc(-c2cc(CO)c(=O)n(Cc3ccc(F)cc3)n2)cc1F |
| 148 to 150 | CC(C)(C)C(=O)Oc1cc(C=CC(=O)c2ccccc2)cc([N+](=O)[O-])c1O |
| 257 to 262 | CCOc1nc(-c2cc(NC(=O)c3ccc(C)c(F)c3)ccc2C)c2c(n1)N(c1c(F)cccc1F)C(=O)NC2 |
| 168 | COc1ccc2c(c1)CCC1(C)C2=CCC2(C)C(O)CCC12 (configuration not stated) |
| 66 to 69 | COP(=O)(Cc1cc(C)c(C)cc1CP(=O)(OC)OC)OC |
| 94 to 96 | Cc1cc(-c2ccnc(NCc3ccccc3)c2)n(-c2cccc(F)c2)n1 |
| 71 to 72 | O=C/C=C/C=C(c1ccccc1)c1ccccc1 |
| 136 to 138 | NC(=NCC(F)(F)F)Nc1ccnc(CCCO)n1 |
| 199 to 201 | Cn1c2c(c3cccc(OCc4ccccc4)c31)C(=O)NCC2 |

| melting point [°C] | Structure (SMILES) |
| --- | --- |
| 73 to 75 | COc1cc(OC)cc(C2CC=CCC2[N+](=O)[O-])c1 (configuration not stated) |
| 131 to 132 | CCOc1nn(-c2ccc(C(F)(F)F)cn2)cc1CCCOc1ccc(CCC(=O)O)cc1OC |
| 40 to 43 | CC(C)(C)OC(=O)NCC(Cl)c1cccs1 (configuration not stated) |
| 134 to 136 | CC(c1oc2ccccc2c(=O)c1-c1cccc(F)c1)n1nc(-c2ccc(Cl)c(O)c2)c2c(N)ncnc21 (configuration not stated) |
| 127 to 130 | Cc1cc2c(cc1C(O)c1c(C(F)(F)F)ccnc1Cl)OCO2 (configuration not stated) |
| 202 to 203 | CC(Cl)(Cl)C(NC(=O)c1cc(F)cc(F)c1)NC(=NC#N)Nc1ccc(C(F)(F)F)nc1 (configuration not stated) |
| 135 to 137 | CCCNC(=O)C1(C/C=C\CSc2nc3ccc(OCC)cc3s2)c2ccccc2-c2ccccc21 |
| 110 | CCOC(=O)[C@H](Cc1cccc(C#N)c1)NS(=O)(=O)c1ccc2c(c1)CN(C(C)C)CC2 |
| 161 | CCC(CCOc1ccc(-c2ccc(C(=O)O)cc2)cc1-c1ccc2c(c1)C(C)(C)CCC2(C)C)NC1CC1 (configuration not stated) |
| 114 to 115 | COc1cc(-c2ncn(Cc3ccccc3)c2-c2scc(OC)c2OC)cc(OC)c1OC |
| 186 to 187 | CSc1ncc2c(=O)[nH]c(-c3ccccc3OCC3CC3)nc2n1 |
| 138 to 140 | C#CCNC(=NCCSCc1nccs1)NC#N |
| 46 to 50 | CCCn1nc(C(C)C)c(C(=O)OCc2cccc(C(=O)c3ccccc3)c2)c1Cc1ccc(-c2ccccc2S(N)(=O)=O)c(F)c1 |
| 233 to 234 | Cc1cc(-c2nc3cccnn3c2-c2ccnc(NC(=O)Nc3cccnc3)c2)ccc1F |
| 162 | COc1cc2c(cc1OC)[C@H]1CCCC[C@H]1N=C2c1ccc(C(C)=NNC(=O)c2cccnc2)cc1 |
| 98 to 115 | CCOC(=O)c1cc2cccc(OCc3ccccc3)c2cc1O |
| 97 to 99 | Cc1cc(=O)n(-c2cc(OC(C)C)c(Cl)cc2F)c(=O)n1C(F)F |
| 262 to 266 | COc1ccc(-c2nc(S(=O)(=O)C(C)C)[nH]c2-c2ccncc2)cc1 |
| 149 to 150 | C=C(C)COc1cc(C)c(NC(C)=O)c(C)c1C |
| 87 | CCOC(=O)CC(Nc1ccccc1)c1ccccc1 (racemic) |
| 164 | CCc1nnc(-c2ccccc2)c(=O)n1N |
| 141 to 142 | Cc1cc(OCC(F)(F)F)c(NC(=O)CN2CCN(CCSc3nc4ccccc4o3)CC2)c(OCC(F)(F)F)n1 |
| 207 | COc1ccc(C=C(C=O)C(C=O)=Cc2ccc(OC)cc2)cc1 |
| 90.2 to 90.7 | COC(=O)C(O)C(O)C(O)C(O)C(=O)OC (configuration not stated) |
